{
  "source": "ChEMBL document CHEMBL3885881",
  "about": "“DrugMatrix”",
  "organism": "Rattus norvegicus",
  "experiment": "DrugMatrix - Regimen: Daily Repeat",
  "format": "toxicity, organism-based, Sprague-Dawley",
  "design": "regimen Daily Repeat, gender Male, age 6-8 weeks",
  "details": "in vivo, po, 10 mg/kg, route oral GAVAGE, dose level Low, vehicle .5 % CMC; for ABSOLUTE BASOPHIL / ABSOLUTE EOSINOPHIL / ABSOLUTE LYMPHOCYTE / ABSOLUTE MONOCYTE / ABSOLUTE SEGMENTED NEUTROPHIL / BASOPHIL / EOSINOPHIL / ERYTHROCYTE COUNT / HEMATOCRIT / HEMOGLOBIN / LEUKOCYTE COUNT / LYMPHOCYTE / MEAN CORPUSCULAR HEMOGLOBIN / MEAN CORPUSCULAR HEMOGLOBIN CONCENTRATION / MEAN CORPUSCULAR VOLUME / MONOCYTE / NEUTROPHIL / NUCLEATED RED BLOOD CELLS / PLATELET COUNT: tissue Blood; for ALANINE AMINOTRANSFERASE / ALBUMIN / ALKALINE PHOSPHATASE / ASPARTATE AMINOTRANSFERASE / BLOOD UREA NITROGEN / CARBON DIOXIDE / CHLORIDE / CHOLESTEROL / CREATINE PHOSPHOKINASE / CREATININE / GLUCOSE / LACTATE DEHYDROGENASE / LIPASE / PHOSPHORUS / POTASSIUM / SODIUM / TOTAL BILIRUBIN / TOTAL PROTEIN / URIC ACID: tissue Plasma",
  "data": [
    {"smiles": "Fc1ccc(C(c2ccc(F)cc2)N2CCN(C/C=C/c3ccccc3)CC2)cc1", "note": "[FLUNARIZINE]", "values": [
      {"measurement": "ABSOLUTE BASOPHIL", "setting": "72 h, time 3 day", "value": 0, "unit": "CELLS/uL"},
      {"measurement": "ABSOLUTE EOSINOPHIL", "setting": "72 h, time 3 day", "value": 0, "unit": "CELLS/uL"},
      {"measurement": "ABSOLUTE LYMPHOCYTE", "setting": "72 h, time 3 day", "value": 15150, "unit": "CELLS/uL"},
      {"measurement": "ABSOLUTE MONOCYTE", "setting": "72 h, time 3 day", "value": 74.33, "unit": "CELLS/uL"},
      {"measurement": "ABSOLUTE SEGMENTED NEUTROPHIL", "setting": "72 h, time 3 day", "value": 1309, "unit": "CELLS/uL"},
      {"measurement": "BASOPHIL", "setting": "72 h, time 3 day", "value": 0, "unit": "%"},
      {"measurement": "EOSINOPHIL", "setting": "72 h, time 3 day", "value": 0, "unit": "%"},
      {"measurement": "ERYTHROCYTE COUNT", "setting": "72 h, time 3 day", "value": 6.09, "unit": "x10E6/uL"},
      {"measurement": "HEMATOCRIT", "setting": "72 h, time 3 day", "value": 37.17, "unit": "%"},
      {"measurement": "HEMOGLOBIN", "setting": "72 h, time 3 day", "value": 14.73, "unit": "G/DL"},
      {"measurement": "LEUKOCYTE COUNT", "setting": "72 h, time 3 day", "value": 16.53, "unit": "x10E3/uL"},
      {"measurement": "LYMPHOCYTE", "setting": "72 h, time 3 day", "value": 91.33, "unit": "%"},
      {"measurement": "MEAN CORPUSCULAR HEMOGLOBIN", "setting": "72 h, time 3 day", "value": 24.2, "unit": "pg"},
      {"measurement": "MEAN CORPUSCULAR HEMOGLOBIN CONCENTRATION", "setting": "72 h, time 3 day", "value": 39.67, "unit": "G/DL"},
      {"measurement": "MEAN CORPUSCULAR VOLUME", "setting": "72 h, time 3 day", "value": 61.03, "unit": "fL"},
      {"measurement": "MONOCYTE", "setting": "72 h, time 3 day", "value": 0.33, "unit": "%"},
      {"measurement": "NEUTROPHIL", "setting": "72 h, time 3 day", "value": 8.33, "unit": "%"},
      {"measurement": "NUCLEATED RED BLOOD CELLS", "setting": "72 h, time 3 day", "value": "0.33 /100WBC"},
      {"measurement": "PLATELET COUNT", "setting": "72 h, time 3 day", "value": 1291, "unit": "x10E3/uL"},
      {"measurement": "ALANINE AMINOTRANSFERASE", "setting": "72 h, time 3 day", "value": 42.67, "unit": "u/L"},
      {"measurement": "ALBUMIN", "setting": "72 h, time 3 day", "value": 4.7, "unit": "G/DL"},
      {"measurement": "ALKALINE PHOSPHATASE", "setting": "72 h, time 3 day", "value": 347.33, "unit": "u/L"},
      {"measurement": "ASPARTATE AMINOTRANSFERASE", "setting": "72 h, time 3 day", "value": 90.33, "unit": "u/L"},
      {"measurement": "BLOOD UREA NITROGEN", "setting": "72 h, time 3 day", "value": 18, "unit": "mg/dL"},
      {"measurement": "CARBON DIOXIDE", "setting": "72 h, time 3 day", "value": 20, "unit": "mmol/L"},
      {"measurement": "CHLORIDE", "setting": "72 h, time 3 day", "value": 101, "unit": "MEQ/L"},
      {"measurement": "CHOLESTEROL", "setting": "72 h, time 3 day", "value": 87.67, "unit": "mg/dL"},
      {"measurement": "CREATINE PHOSPHOKINASE", "setting": "72 h, time 3 day", "value": 406.67, "unit": "u/L"},
      {"measurement": "CREATININE", "setting": "72 h, time 3 day", "value": 0.23, "unit": "mg/dL"},
      {"measurement": "GLUCOSE", "setting": "72 h, time 3 day", "value": 149, "unit": "mg/dL"},
      {"measurement": "LACTATE DEHYDROGENASE", "setting": "72 h, time 3 day", "value": 371.67, "unit": "u/L"},
      {"measurement": "LIPASE", "setting": "72 h, time 3 day", "value": 9, "unit": "u/L"},
      {"measurement": "PHOSPHORUS", "setting": "72 h, time 3 day", "value": 12.27, "unit": "mg/dL"},
      {"measurement": "POTASSIUM", "setting": "72 h, time 3 day", "value": 6.75, "unit": "MEQ/L"},
      {"measurement": "SODIUM", "setting": "72 h, time 3 day", "value": 143.6, "unit": "MEQ/L"},
      {"measurement": "TOTAL BILIRUBIN", "setting": "72 h, time 3 day", "value": 0.2, "unit": "mg/dL"},
      {"measurement": "TOTAL PROTEIN", "setting": "72 h, time 3 day", "value": 6.57, "unit": "G/DL"},
      {"measurement": "URIC ACID", "setting": "72 h, time 3 day", "value": 1.67, "unit": "mg/dL"},
      {"measurement": "ABSOLUTE BASOPHIL", "setting": "120 h, time 5 day", "value": 0, "unit": "CELLS/uL"},
      {"measurement": "ABSOLUTE EOSINOPHIL", "setting": "120 h, time 5 day", "value": 122, "unit": "CELLS/uL"},
      {"measurement": "ABSOLUTE LYMPHOCYTE", "setting": "120 h, time 5 day", "value": 14703, "unit": "CELLS/uL"},
      {"measurement": "ABSOLUTE MONOCYTE", "setting": "120 h, time 5 day", "value": 297.33, "unit": "CELLS/uL"},
      {"measurement": "ABSOLUTE SEGMENTED NEUTROPHIL", "setting": "120 h, time 5 day", "value": 711, "unit": "CELLS/uL"},
      {"measurement": "BASOPHIL", "setting": "120 h, time 5 day", "value": 0, "unit": "%"},
      {"measurement": "EOSINOPHIL", "setting": "120 h, time 5 day", "value": 0.67, "unit": "%"},
      {"measurement": "ERYTHROCYTE COUNT", "setting": "120 h, time 5 day", "value": 5.61, "unit": "x10E6/uL"},
      {"measurement": "HEMATOCRIT", "setting": "120 h, time 5 day", "value": 36.03, "unit": "%"},
      {"measurement": "HEMOGLOBIN", "setting": "120 h, time 5 day", "value": 14.1, "unit": "G/DL"},
      {"measurement": "LEUKOCYTE COUNT", "setting": "120 h, time 5 day", "value": 15.83, "unit": "x10E3/uL"},
      {"measurement": "LYMPHOCYTE", "setting": "120 h, time 5 day", "value": 93, "unit": "%"},
      {"measurement": "MEAN CORPUSCULAR HEMOGLOBIN", "setting": "120 h, time 5 day", "value": 25.13, "unit": "pg"},
      {"measurement": "MEAN CORPUSCULAR HEMOGLOBIN CONCENTRATION", "setting": "120 h, time 5 day", "value": 39.17, "unit": "G/DL"},
      {"measurement": "MEAN CORPUSCULAR VOLUME", "setting": "120 h, time 5 day", "value": 64.2, "unit": "fL"},
      {"measurement": "MONOCYTE", "setting": "120 h, time 5 day", "value": 2, "unit": "%"},
      {"measurement": "NEUTROPHIL", "setting": "120 h, time 5 day", "value": 4.33, "unit": "%"},
      {"measurement": "NUCLEATED RED BLOOD CELLS", "setting": "120 h, time 5 day", "value": "0 /100WBC"},
      {"measurement": "PLATELET COUNT", "setting": "120 h, time 5 day", "value": 1316, "unit": "x10E3/uL"},
      {"measurement": "ALANINE AMINOTRANSFERASE", "setting": "120 h, time 5 day", "value": 52, "unit": "u/L"},
      {"measurement": "ALBUMIN", "setting": "120 h, time 5 day", "value": 4.43, "unit": "G/DL"},
      {"measurement": "ALKALINE PHOSPHATASE", "setting": "120 h, time 5 day", "value": 419, "unit": "u/L"},
      {"measurement": "ASPARTATE AMINOTRANSFERASE", "setting": "120 h, time 5 day", "value": 84.33, "unit": "u/L"},
      {"measurement": "BLOOD UREA NITROGEN", "setting": "120 h, time 5 day", "value": 14.67, "unit": "mg/dL"},
      {"measurement": "CARBON DIOXIDE", "setting": "120 h, time 5 day", "value": 24, "unit": "mmol/L"},
      {"measurement": "CHLORIDE", "setting": "120 h, time 5 day", "value": 103.67, "unit": "MEQ/L"},
      {"measurement": "CHOLESTEROL", "setting": "120 h, time 5 day", "value": 74.33, "unit": "mg/dL"},
      {"measurement": "CREATINE PHOSPHOKINASE", "setting": "120 h, time 5 day", "value": 286, "unit": "u/L"},
      {"measurement": "CREATININE", "setting": "120 h, time 5 day", "value": 0.11, "unit": "mg/dL"},
      {"measurement": "GLUCOSE", "setting": "120 h, time 5 day", "value": 150.67, "unit": "mg/dL"},
      {"measurement": "LACTATE DEHYDROGENASE", "setting": "120 h, time 5 day", "value": 187.33, "unit": "u/L"},
      {"measurement": "LIPASE", "setting": "120 h, time 5 day", "value": 8.67, "unit": "u/L"},
      {"measurement": "PHOSPHORUS", "setting": "120 h, time 5 day", "value": 14.07, "unit": "mg/dL"},
      {"measurement": "POTASSIUM", "setting": "120 h, time 5 day", "value": 6.62, "unit": "MEQ/L"},
      {"measurement": "SODIUM", "setting": "120 h, time 5 day", "value": 147.27, "unit": "MEQ/L"},
      {"measurement": "TOTAL BILIRUBIN", "setting": "120 h, time 5 day", "value": 0.2, "unit": "mg/dL"},
      {"measurement": "TOTAL PROTEIN", "setting": "120 h, time 5 day", "value": 6.03, "unit": "G/DL"},
      {"measurement": "URIC ACID", "setting": "120 h, time 5 day", "value": 1.67, "unit": "mg/dL"}
    ]}
  ]
}
